Assays:
Assay type in all cases: cell-based
[1] = tested on: NF-κB subunit p65 phosphorylation (S536); experiment: Western blot of p65 phosphorylation (S536) after TNFα in U2-OS cells; conditions: 1-hour pre-treatment, TNFα 10 ng/ml, 20 min
Method: Fig.1: Identification of inhibitors specific for DNA damage-induced NF-κB activity. (A) Flowchart representing the high-throughput chemical library screening. A screen/counter-screen strategy was used by stimulating NF-κB in U2-OS cells with etoposide (50 µM for 90 min) and hits were counter-screened with TNFα (10 ng/ml for 20 min). Cells were pre-treated with compounds (10 µM) for 1 hour before stimulation, fixed, and percent p65 nuclear translocation measured by fluorescence microscopy. IC50 values were used for final selection. (B) Comparison of mean p65 nuclear translocation following either etoposide or TNFa stimulation after treatment with each counter-screened hit compound. Values were normalized to etoposide or TNFα positive controls. Specific inhibitors (red) of DNA damage-induced NF-κB signaling were defined by setting cut-off criteria (black line). […] (C) IC50 determination for MW01 (left) and MW05 (right) of p65 nuclear translocation, following either etoposide or TNFα treatment. […] IC50 noted with a dotted line. […] (E) Western blot analysis (top) and quantification (bottom) of NF-κB subunit p65 phosphorylation (S536) following 1-hour pre-treatment with DMSO, MW01 (10 µM), or MW05 (10 µM), in unstimulated, after 90 min irradiation (IR, 20 Gy), or after 20 min TNFα (10 ng/mL) conditions in U2- OS cells. […]
NF-κB was stimulated by DNA damage through either 20 Gy irradiation (IR) and analyzed after 90 minutes or by 10 ng/ml TNFα and analyzed after 20 minutes unless otherwise noted. […]
Cells were collected by scraping and lysed in Baeuerle lysis buffer supplemented with Protease (Thermo Fisher Scientific, 78429) and Phosphatase (Thermo Fisher Scientific, 78420) inhibitors after the appropriate treatment and time point. Proteins were quantified by Bradford assay (Bio-Rad, 5000006) and 20-50 µg of extracted proteins were loaded on 4-20% Protein Gel (Bio-Rad, 4568096) and then transferred onto a PVDF membrane (Bio-Rad, 1620177) using Tris-Glycine buffer with 20% of methanol. […]

[2] = tested on: BIRC3; experiment: RT-qPCR mRNA expression analysis of BIRC3 in U2-OS cells after irradiation; conditions: 10 µM, 8 hours after 10 Gy irradiation
[3] = tested on: Akt phosphorylation (S473); experiment: Western blot of Akt phosphorylation (S473) in U2-OS cells; conditions: 1-hour pre-treatment
Method: Fig.2: MW01 and MW05 are potent and selective kinase inhibitors. […] Heatmap indicates lower IC50. […] (C) Western blot analysis of NF-κB p65 phosphorylation (S536) and Akt phosphorylation (S473) following 1-hour pre-treatment with DMSO, MW01 (10 µM), MW05 (10µM), PI-103 (1 µM), NU7441 (1 µM), or MU1210 (1 µM) in unstimulated, after 90 min irradiation (IR, 20 Gy), or after 20 min TNFα (10 ng/ml) conditions in U2-OS cells. (D) mRNA expression analysis of CLK2 (top), 48 hours after transfection with siNC, CLK2 si1, or CLK2 si2. mRNA expression analysis of NFKBIA (bottom), 48 hours after transfection with siNC, CLK2 si1, orCLK2 si2. Values are normalized to unstimulated siNC expressing cells. Statistical comparison was made between experimental conditions and respective paired siNC expressing controls. ns: not significant; **, ***, ****: p<0.01, p<0.001, p<0.000. (E) Western blot analysis of U2-OS cells after transfection with siNC or CLK2 si2 unstimulated, after irradiation (IR), or after TNFα treatment. Vinculin used as loading control. (F) IC50 (nM) of all CLK isoforms for MW01 and MW05. (G) Quantification from (E) with CLK2 knockdown and p-p65 quantification (top left and top right, respectively) and CLK4 knockdown and p-p65 (bottom left and bottom right, respectively. ns: not significant; **, ***, ****: p<0.01, p<0.001, p<0.0001.
Cells were collected by scraping and lysed in Baeuerle lysis buffer supplemented with Protease (Thermo Fisher Scientific, 78429) and Phosphatase (Thermo Fisher Scientific, 78420) inhibitors after the appropriate treatment and time point. Proteins were quantified by Bradford assay (Bio-Rad, 5000006) and 20-50 µg of extracted proteins were loaded on 4-20% Protein Gel (Bio-Rad, 4568096) and then transferred onto a PVDF membrane (Bio-Rad, 1620177) using Tris-Glycine buffer with 20% of methanol. Blocking was performed for 1h with 5% not-fat dry milk in PBS 1X. […] The membranes were analyzed by ECL (Thermo Fisher Scientific, 34580) and detected by ChemiDoc XRS+ (Bio-Rad) using ImageLab software (Bio-Rad). […]

`COc1ccc2c(c1OC)c(=O)n1c3ccc(O)cc3c3ccnc2c31` [MW01, 5-Hydroxy-10,11-dimethoxy-9H-benzo[c]indolo[3,2,1-ij][1,5]naphthyridin-9-one] was tested, and the “phosphorylation of p65 at serine 536, TNFα-stimulated” value [1] was “untouched”, the “upregulation of anti-apoptotic NF-κB target gene BIRC3” value [2] was “abolished” and the “reduction of p-Akt” value [3] was “complete reduction”.

`COc1ccc2cc3c(N)nn(C(=O)c4cccc(N(C)C)c4)c3nc2c1` [MW05, (3-Amino-7-methoxypyrazolo[3,4-b]quinolin-1-yl)-[3-(dimethylamino)phenyl]methanone] was tested, and the “phosphorylation of p65 at serine 536, TNFα-stimulated” value [1] was “untouched”, the “upregulation of anti-apoptotic NF-κB target gene BIRC3” value [2] was “abolished” and the “reduction of p-Akt” value [3] was “partial reduction”.

From patent EP4467141A1, “PYRAZOLO-QUINOLINES AS SELECTIVE INHIBITORS OF GENOTOXIC STRESS-INDUCED IKK/NF- KB PATHWAYS FOR CANCER THERAPY” (Max-Delbrück-Centrum für Molekulare Medizin in der …, priority 2023, dated 2024)
